Data as given in the supplement of paper PMC11061612.

Columns and labels:
[1] = compound: CS(=O)(=O)CCNCc1ccc(-c2ccc3ncnc(Nc4ccc(OCc5cccc(F)c5)c(Cl)c4)c3c2)o1 [Lapatinib]; conditions: max 10 µM
How it was run: (§1)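 Cancer cell lines in 1536-well plates (7.5 μl DMEM/F12 or RPMI, 10% FBS) were held 24 hours at 37°C and 5% CO2 and then dosed for 72 hours at a final DMSO of typically 0.2%. Viability was taken from CellTiter-Glo 2.0 luminescence, scaled between blank-well and DMSO-well means. Curves were fitted as two-parameter logistic models with a non-linear mixed effects model, from which the single-agent IC50 was taken.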

[2] = compound: CC1=C(C(=CC=C1)Cl)NC(=O)C2=CN=C(S2)NC3=CC(=NC(=N3)C)N4CCN(CC4)CCO [Dasatinib]; conditions: max 2 µM
How it was run: as §1

[3] = compound: CCN(CCO)CCCOc1ccc2c(Nc3cc(CC(=O)Nc4cccc(F)c4)[nH]n3)ncnc2c1 [AZD2811]; conditions: max 1 µM
How it was run: as §1

[4] = compound: CC1=CN2[C@@H](C1)C=NC3=CC(=C(C=C3C2=O)OC)OCCCCCOC4=C(C=C5C(=C4)N=C[C@@H]6CC(=CN6C5=O)C)OC [SG3199]; conditions: max 0.001 µM
How it was run: as §1

[5] = compound: CN(C)CCCOc1ccc(-c2ccc3ncc4c(c3c2)n(C2CCOCC2)c(=O)n4C)cn1 [AZD0156]; conditions: max 3 µM
How it was run: as §1

[6] = compound: COc1cc([C@@H]2c3cc4c(cc3[C@@H](O[C@@H]3O[C@@H]5CO[C@@H](C)O[C@H]5[C@H](O)[C@H]3O)[C@H]3COC(=O)[C@H]23)OCO4)cc(OC)c1O [Etoposide]; conditions: max 10 µM
How it was run: as §1

[7] = compound: CCc1c2c(nc3ccc(O)cc13)-c1cc3c(c(=O)n1C2)COC(=O)[C@]3(O)CC [SN-38]; conditions: max 0.3 µM
How it was run: as §1

[8] = compound: NC1(c2ccc(-c3nc4ccn5c(=O)[nH]nc5c4cc3-c3ccccc3)cc2)CCC1 [MK-2206]; conditions: max 10 µM
How it was run: as §1

[9] = compound: Cn1cnc2c(F)c(Nc3ccc(Br)cc3Cl)c(C(=O)NOCCO)cc21 [Selumetinib]; conditions: max 10 µM
How it was run: as §1

[10] = compound: COc1cccc2c1C(=O)c1c(O)c3c(c(O)c1C2=O)C[C@@](O)(C(=O)CO)C[C@@H]3O[C@H]1C[C@H](N)[C@H](O)[C@H](C)O1 [Doxorubicin]; conditions: max 1 µM
How it was run: as §1

[11] = compound: Cc1cc2ncnn2cc1Nc1ncc2c(n1)n(C1CCOCC1)c(=O)n2C [AZD7648]; conditions: max 10 µM
How it was run: as §1

[12] = compound: COc1nnc2ccc(N3CCC(c4ccc(OCCN5CCN(C)C(=O)[C@H]5C)cc4)CC3)nn12 [AZD5153]; conditions: max 1 µM
How it was run: as §1

[13] = compound: C1CC(C1)(C(=O)[O-])C(=O)[O-].N.N.[Pt+2] [Carboplatin]; conditions: max 10 µM
How it was run: as §1

[14] = compound: O=c1[nH]cc(F)c(=O)[nH]1 [5-Fluorouracil]; conditions: max 20 µM
How it was run: as §1

[15] = compound: CC(=O)Nc1cccc(-n2c(=O)n(C3CC3)c(=O)c3c(Nc4ccc(I)cc4F)n(C)c(=O)c(C)c32)c1 [Trametinib]; conditions: max 1 µM
How it was run: as §1

[16] = compound: O=C(Nc1ccc2[nH]nc(-c3ccncc3)c2c1)[C@@H]1CCN(CC(=O)N2CCN(c3ccc(-c4ncccn4)cc3)CC2)C1; conditions: max 5 µM
How it was run: as §1

[17] = compound: CC(=O)O[C@H]1C(=O)[C@@]2(C)[C@H]([C@H](OC(=O)c3ccccc3)[C@]3(O)C[C@H](OC(=O)[C@H](O)[C@@H](NC(=O)c4ccccc4)c4ccccc4)C(C)=C1C3(C)C)[C@]1(OC(C)=O)CO[C@@H]1C[C@@H]2O [Paclitaxel]; conditions: max 3 µM
How it was run: as §1

[18] = compound: CC1(C)CCC(CN2CCN(c3ccc(C(=O)NS(=O)(=O)c4ccc(NCC5CCOCC5)c([N+](=O)[O-])c4)c(Oc4cnc5[nH]ccc5c4)c3)CC2)=C(c2ccc(Cl)cc2)C1 [Venetoclax]; conditions: max 1 µM
How it was run: as §1

[19] = compound: C[C@@H](c1ccc2nccn2c1)n1nnc2ncc(-c3cnn(C)c3)nc21 [Savolitinib]; conditions: max 1 µM
How it was run: as §1

[20] = compound: C1CN(CCC1(C(=O)N[C@@H](CCO)C2=CC=C(C=C2)Cl)N)C3=NC=NC4=C3C=CN4 [AZD5363]; conditions: max 10 µM
How it was run: as §1

[21] = compound: CC(C)n1c(=O)n(C)c2cnc3cc(F)c(-c4ccc(OCCCN5CCCCC5)nc4)cc3c21 [AZD1390]; conditions: max 0.3 µM
How it was run: as §1

[22] = compound: COc1cc2ncnc(Nc3ccc(F)c(Cl)c3)c2cc1OCCCN1CCOCC1 [Gefitinib]; conditions: max 10 µM
How it was run: as §1

[23] = compound: C[C@@H](Nc1cc(F)cc(F)c1)c1cc(C(=O)N(C)C)cc2c(=O)cc(N3CCOCC3)oc12 [AZD8186]; conditions: max 10 µM
How it was run: as §1

[24] = compound: C[C@@H]1COCCN1C2=NC(=NC(=C2)C3(CC3)[S@](=N)(=O)C)C4=C5C=CNC5=NC=C4 [AZD6738]; conditions: max 10 µM
How it was run: as §1

[25] = compound: CC(=O)c1c(C)c2cnc(Nc3ccc(N4CCNCC4)cn3)nc2n(C2CCCC2)c1=O [Palbociclib]; conditions: max 10 µM
How it was run: as §1

[26] = compound: COc1cc(Nc2ncc3c(n2)-c2ccc(Cl)cc2C(c2c(F)cccc2OC)=NC3)ccc1C(=O)O [Alisertib]; conditions: max 10 µM
How it was run: as §1

[27] = compound: O=C(c1cc(Cc2n[nH]c(=O)c3ccccc23)ccc1F)N1CCN(C(=O)C2CC2)CC1 [Olaparib]; conditions: max 10 µM
How it was run: as §1

[28] = compound: C=CCn1c(=O)c2cnc(Nc3ccc(N4CCN(C)CC4)cc3)nc2n1-c1cccc(C(C)(C)O)n1 [AZD1775]; conditions: max 3 µM
How it was run: as §1

[29] = compound: N#Cc1cnc(Nc2cc(NC[C@H]3CNCCO3)c(C(F)(F)F)cn2)cn1 [SRA737]; conditions: max 10 µM
How it was run: as §1

[30] = compound: Cc1nc(-c2cn3c(n2)-c2ccc(-c4cnn(C(C)(C)C(N)=O)c4)cc2OCC3)n(C(C)C)n1 [Taselisib]; conditions: max 10 µM
How it was run: as §1

[31] = compound: CN(CC[C@H](CSC1=CC=CC=C1)NC2=C(C=C(C=C2)S(=O)(=O)NC(=O)C3=CC=C(C=C3)N4CCC(CC4)[C@H](C5=CC=CC=C5C6=CC=C(C=C6)Cl)O)S(=O)(=O)C(F)(F)F)CCO [AZD4320]; conditions: max 1 µM
How it was run: as §1

[32] = compound: Nc1ccn([C@@H]2O[C@H](CO)[C@@H](O)C2(F)F)c(=O)n1 [Gemcitabine]; conditions: max 0.3 µM
How it was run: as §1

[33] = compound: C[C@@H](Oc1cc(-c2cnn(C3CCNCC3)c2)cnc1N)c1c(Cl)ccc(F)c1Cl [Crizotinib]; conditions: max 10 µM
How it was run: as §1

[34] = compound: Cc1c2c(nn1C)CSCc1cc(n(C)n1)CSc1cc(c3ccccc3c1)OCCCc1c(C(=O)O)n(C)c3c-2c(Cl)ccc13 [AZD5991]; conditions: max 1 µM
How it was run: as §1

[35] = compound: COc1cccc(OCCCN)c1-c1cc(Nc2cnc(C#N)cn2)n[nH]1 [Prexasertib]; conditions: max 1 µM
How it was run: as §1

Q: For NCI-H2731 (Mesothelioma), which “IC50, cell viability 72 h” value [1] is on record?
A: > 10 µM

Q: And the “IC50, cell viability 72 h” value [2]?
A: > 2 µM

Q: And the “IC50, cell viability 72 h” value [3]?
A: > 1 µM

Q: And the “IC50, cell viability 72 h” value [4]?
A: > 0.001 µM

Q: What about the “IC50, cell viability 72 h” value [5] of the same cell line?
A: > 3 µM

Q: What about the “IC50, cell viability 72 h” value [6] of the same cell line?
A: > 10 µM

Q: And the “IC50, cell viability 72 h” value [7]?
A: > 0.3 µM

Q: And the “IC50, cell viability 72 h” value [8]?
A: > 10 µM

Q: What about the “IC50, cell viability 72 h” value [9] of the same cell line?
A: > 10 µM

Q: And the “IC50, cell viability 72 h” value [10]?
A: > 1 µM

Q: What about the “IC50, cell viability 72 h” value [11] of the same cell line?
A: > 10 µM

Q: What about the “IC50, cell viability 72 h” value [12] of the same cell line?
A: > 1 µM

Q: What about the “IC50, cell viability 72 h” value [13] of the same cell line?
A: > 10 µM

Q: What about the “IC50, cell viability 72 h” value [14] of the same cell line?
A: > 20 µM

Q: And the “IC50, cell viability 72 h” value [15]?
A: > 1 µM

Q: What about the “IC50, cell viability 72 h” value [16] of the same cell line?
A: > 5 µM

Q: And the “IC50, cell viability 72 h” value [17]?
A: 1.78 µM

Q: What about the “IC50, cell viability 72 h” value [18] of the same cell line?
A: > 1 µM

Q: And the “IC50, cell viability 72 h” value [19]?
A: > 1 µM

Q: And the “IC50, cell viability 72 h” value [20]?
A: > 10 µM

Q: What about the “IC50, cell viability 72 h” value [21] of the same cell line?
A: > 0.3 µM

Q: And the “IC50, cell viability 72 h” value [22]?
A: > 10 µM

Q: And the “IC50, cell viability 72 h” value [23]?
A: > 10 µM

Q: And the “IC50, cell viability 72 h” value [24]?
A: > 10 µM

Q: What about the “IC50, cell viability 72 h” value [25] of the same cell line?
A: > 10 µM

Q: And the “IC50, cell viability 72 h” value [26]?
A: > 10 µM

Q: What about the “IC50, cell viability 72 h” value [27] of the same cell line?
A: > 10 µM

Q: What about the “IC50, cell viability 72 h” value [28] of the same cell line?
A: > 3 µM

Q: What about the “IC50, cell viability 72 h” value [29] of the same cell line?
A: > 10 µM

Q: And the “IC50, cell viability 72 h” value [30]?
A: > 10 µM

Q: And the “IC50, cell viability 72 h” value [31]?
A: > 1 µM

Q: And the “IC50, cell viability 72 h” value [32]?
A: > 0.3 µM

Q: And the “IC50, cell viability 72 h” value [33]?
A: > 10 µM

Q: And the “IC50, cell viability 72 h” value [34]?
A: > 1 µM

Q: What about the “IC50, cell viability 72 h” value [35] of the same cell line?
A: > 1 µM
